Test results reported in the supplement of paper PMC13380429.

Tests used:
Conditions in all cases: 72 h
U2OS [1] = assay: drug sensitivity score (DSS) for viability; higher = more toxic; extreme values may be limits of the assay
Vero E6 [2] = assay: as above
Caco-2 [3] = assay: as above
HepG2 [4] = assay: as above
U2OS [5] = assay: relative viability EC50 (midpoint between 100% and the lowest measured viability); higher = less toxic
Vero E6 [6] = assay: as above
Caco-2 [7] = assay: as above
HepG2 [8] = assay: as above
U2OS [9] = assay: cell viability relative to DMSO; higher = less toxic
Vero E6 [10] = assay: as above
Caco-2 [11] = assay: as above
HepG2 [12] = assay: as above
Calu-3 = assay: drug sensitivity score (DSS) for viability; higher = more toxic; extreme values may be limits of the assay

`c1ccc(CCNc2nc(-c3ccccc3)cs2)cc1` [fanetizole] showed a drug sensitivity score (U2OS [1]) of 0, a drug sensitivity score (Vero E6 [2]) of 0 and a drug sensitivity score (Caco-2 [3]) of 0.9. For the same compound, the drug sensitivity score (HepG2 [4]) was 0, the “relative viability EC50” value (U2OS [5]) was over 10 µM and the “relative viability EC50” value (Vero E6 [6]) was over 10 µM. The “relative viability EC50” value (Caco-2 [7]) was over 10 µM, the “relative viability EC50” value (HepG2 [8]) was over 10 µM and the cell viability (U2OS [9]; 1 nM) was 104%. The cell viability (U2OS [9]; 10 nM) was 104%, the cell viability (U2OS [9]; 100 nM) was 104% and the cell viability (U2OS [9]; 1000 nM) was 97.7%. The cell viability (U2OS [9]; 10000 nM) was 101%, the cell viability (Vero E6 [10]; 1 nM) was 98.7% and the cell viability (Vero E6 [10]; 10 nM) was 99.7%. It also gave a cell viability (Vero E6 [10]; 100 nM) of 101%, a cell viability (Vero E6 [10]; 1000 nM) of 98.4% and a cell viability (Vero E6 [10]; 10000 nM) of 100%. It also gave a cell viability (Caco-2 [11]; 1 nM) of 96.4%, a cell viability (Caco-2 [11]; 10 nM) of 87.3% and a cell viability (Caco-2 [11]; 100 nM) of 92.3%. It also gave a cell viability (Caco-2 [11]; 1000 nM) of 88.9%, a cell viability (Caco-2 [11]; 10000 nM) of 87.3% and a cell viability (HepG2 [12]; 1 nM) of 101%. The cell viability (HepG2 [12]; 10 nM) was 96.9%, the cell viability (HepG2 [12]; 100 nM) was 103% and the cell viability (HepG2 [12]; 1000 nM) was 94.5%. The cell viability (HepG2 [12]; 10000 nM) was 100%.
Work on `Cc1ccc(S(=O)(=O)NC(=O)NN2CC3CCCC3C2)cc1` (centres undefined) [gliclazide] yielded a drug sensitivity score (U2OS [1]) of 0, a drug sensitivity score (Vero E6 [2]) of 0 and a drug sensitivity score (Caco-2 [3]) of 0. For the same compound, the drug sensitivity score (HepG2 [4]) was 0, the “relative viability EC50” value (U2OS [5]) was over 10 µM and the “relative viability EC50” value (Vero E6 [6]) was over 10 µM. The “relative viability EC50” value (Caco-2 [7]) was over 10 µM, the “relative viability EC50” value (HepG2 [8]) was over 10 µM and the cell viability (U2OS [9]; 1 nM) was 92%. For the same compound, the cell viability (U2OS [9]; 10 nM) was 99.3%, the cell viability (U2OS [9]; 100 nM) was 102% and the cell viability (U2OS [9]; 1000 nM) was 93.3%. It also gave a cell viability (U2OS [9]; 10000 nM) of 101%, a cell viability (Vero E6 [10]; 1 nM) of 106% and a cell viability (Vero E6 [10]; 10 nM) of 97%. For the same compound, the cell viability (Vero E6 [10]; 100 nM) was 101%, the cell viability (Vero E6 [10]; 1000 nM) was 99.2% and the cell viability (Vero E6 [10]; 10000 nM) was 102%. For the same compound, the cell viability (Caco-2 [11]; 1 nM) was 87%, the cell viability (Caco-2 [11]; 10 nM) was 110% and the cell viability (Caco-2 [11]; 100 nM) was 100%. The cell viability (Caco-2 [11]; 1000 nM) was 102%, the cell viability (Caco-2 [11]; 10000 nM) was 89% and the cell viability (HepG2 [12]; 1 nM) was 99.1%. It also gave a cell viability (HepG2 [12]; 10 nM) of 96.1%, a cell viability (HepG2 [12]; 100 nM) of 105% and a cell viability (HepG2 [12]; 1000 nM) of 118%. The cell viability (HepG2 [12]; 10000 nM) was 108%.
`CN(C)c1ccc2nc3ccc(=[N+](C)C)cc-3sc2c1` [methylene-blue] was tested, and the drug sensitivity score (U2OS [1]) was 3, the drug sensitivity score (Vero E6 [2]) was 5.1 and the drug sensitivity score (Calu-3) was 6.1. For the same compound, the drug sensitivity score (HepG2 [4]) was 9.2.
Work on `COc1ccccc1OCC(O)CNC(C)C` (centres undefined) [moprolol] yielded a drug sensitivity score (U2OS [1]) of 0, a drug sensitivity score (Vero E6 [2]) of 0 and a drug sensitivity score (Caco-2 [3]) of 0. For the same compound, the drug sensitivity score (HepG2 [4]) was 0, the “relative viability EC50” value (U2OS [5]) was over 10 µM and the “relative viability EC50” value (Vero E6 [6]) was over 10 µM. The “relative viability EC50” value (Caco-2 [7]) was over 10 µM, the “relative viability EC50” value (HepG2 [8]) was over 10 µM and the cell viability (U2OS [9]; 1 nM) was 101%. The cell viability (U2OS [9]; 10 nM) was 96.6%, the cell viability (U2OS [9]; 100 nM) was 99.7% and the cell viability (U2OS [9]; 1000 nM) was 102%. It also gave a cell viability (U2OS [9]; 10000 nM) of 103%, a cell viability (Vero E6 [10]; 1 nM) of 102% and a cell viability (Vero E6 [10]; 10 nM) of 99.6%. For the same compound, the cell viability (Vero E6 [10]; 100 nM) was 105%, the cell viability (Vero E6 [10]; 1000 nM) was 99.5% and the cell viability (Vero E6 [10]; 10000 nM) was 102%. For the same compound, the cell viability (Caco-2 [11]; 1 nM) was 97.7%, the cell viability (Caco-2 [11]; 10 nM) was 95.4% and the cell viability (Caco-2 [11]; 100 nM) was 99.6%. It also gave a cell viability (Caco-2 [11]; 1000 nM) of 98.2%, a cell viability (Caco-2 [11]; 10000 nM) of 92.7% and a cell viability (HepG2 [12]; 1 nM) of 98.3%. For the same compound, the cell viability (HepG2 [12]; 10 nM) was 113%, the cell viability (HepG2 [12]; 100 nM) was 100% and the cell viability (HepG2 [12]; 1000 nM) was 98.3%. For the same compound, the cell viability (HepG2 [12]; 10000 nM) was 103%.
In the case of `CCCCCCCCCCCCCCOC(=O)c1cccnc1` [myristyl-nicotinate], the drug sensitivity score (U2OS [1]) is reported as 0, the drug sensitivity score (Vero E6 [2]) is reported as 0 and the drug sensitivity score (Caco-2 [3]) is reported as 0. For the same compound, the drug sensitivity score (HepG2 [4]) was 0, the “relative viability EC50” value (U2OS [5]) was over 10 µM and the “relative viability EC50” value (Vero E6 [6]) was over 10 µM. The “relative viability EC50” value (Caco-2 [7]) was over 10 µM, the “relative viability EC50” value (HepG2 [8]) was over 10 µM and the cell viability (U2OS [9]; 1 nM) was 101%. The cell viability (U2OS [9]; 10 nM) was 96.7%, the cell viability (U2OS [9]; 100 nM) was 101% and the cell viability (U2OS [9]; 1000 nM) was 98.4%. For the same compound, the cell viability (U2OS [9]; 10000 nM) was 102%, the cell viability (Vero E6 [10]; 1 nM) was 96.6% and the cell viability (Vero E6 [10]; 10 nM) was 98.2%. It also gave a cell viability (Vero E6 [10]; 100 nM) of 97.6%, a cell viability (Vero E6 [10]; 1000 nM) of 102% and a cell viability (Vero E6 [10]; 10000 nM) of 101%. For the same compound, the cell viability (Caco-2 [11]; 1 nM) was 98.2%, the cell viability (Caco-2 [11]; 10 nM) was 103% and the cell viability (Caco-2 [11]; 100 nM) was 97.7%. The cell viability (Caco-2 [11]; 1000 nM) was 97.8%, the cell viability (Caco-2 [11]; 10000 nM) was 103% and the cell viability (HepG2 [12]; 1 nM) was 98.7%. For the same compound, the cell viability (HepG2 [12]; 10 nM) was 93.5%, the cell viability (HepG2 [12]; 100 nM) was 105% and the cell viability (HepG2 [12]; 1000 nM) was 99.4%. For the same compound, the cell viability (HepG2 [12]; 10000 nM) was 102%.
For `O=C(O)C(=O)O.[NH-][C@@H]1CCCC[C@H]1[NH-].[Pt+2]` [oxaliplatin], the drug sensitivity score (U2OS [1]) was 0.1, the drug sensitivity score (Vero E6 [2]) was 4.8 and the drug sensitivity score (Calu-3) was 0. For the same compound, the drug sensitivity score (HepG2 [4]) was 6.
`Cc1cccn2c(=O)c(-c3nnn[nH]3)cnc12` [pemirolast] showed a drug sensitivity score (U2OS [1]) of 0, a drug sensitivity score (Vero E6 [2]) of 0 and a drug sensitivity score (Caco-2 [3]) of 0. The drug sensitivity score (HepG2 [4]) was 0, the “relative viability EC50” value (U2OS [5]) was over 10 µM and the “relative viability EC50” value (Vero E6 [6]) was over 10 µM. For the same compound, the “relative viability EC50” value (Caco-2 [7]) was over 10 µM, the “relative viability EC50” value (HepG2 [8]) was over 10 µM and the cell viability (U2OS [9]; 1 nM) was 98.4%. The cell viability (U2OS [9]; 10 nM) was 95.1%, the cell viability (U2OS [9]; 100 nM) was 95.4% and the cell viability (U2OS [9]; 1000 nM) was 91.5%. For the same compound, the cell viability (U2OS [9]; 10000 nM) was 95.6%, the cell viability (Vero E6 [10]; 1 nM) was 89.7% and the cell viability (Vero E6 [10]; 10 nM) was 88.7%. It also gave a cell viability (Vero E6 [10]; 100 nM) of 88.5%, a cell viability (Vero E6 [10]; 1000 nM) of 96.4% and a cell viability (Vero E6 [10]; 10000 nM) of 93.8%. The cell viability (Caco-2 [11]; 1 nM) was 95.1%, the cell viability (Caco-2 [11]; 10 nM) was 98.6% and the cell viability (Caco-2 [11]; 100 nM) was 92.6%. It also gave a cell viability (Caco-2 [11]; 1000 nM) of 96.1%, a cell viability (Caco-2 [11]; 10000 nM) of 97.6% and a cell viability (HepG2 [12]; 1 nM) of 102%. For the same compound, the cell viability (HepG2 [12]; 10 nM) was 98.2%, the cell viability (HepG2 [12]; 100 nM) was 101% and the cell viability (HepG2 [12]; 1000 nM) was 96.2%. For the same compound, the cell viability (HepG2 [12]; 10000 nM) was 92.7%.
`O=C(/C=C/c1ccc(O)c2c1[C@H](C(=O)O[C@H](Cc1ccc(O)c(O)c1)C(=O)O)[C@@H](c1ccc(O)c(O)c1)O2)O[C@H](Cc1ccc(O)c(O)c1)C(=O)O` [salvianolic-acid-B] gave a drug sensitivity score (U2OS [1]) of 0, a drug sensitivity score (Vero E6 [2]) of 0 and a drug sensitivity score (Caco-2 [3]) of 0. The drug sensitivity score (HepG2 [4]) was 0, the “relative viability EC50” value (U2OS [5]) was over 10 µM and the “relative viability EC50” value (Vero E6 [6]) was over 10 µM. For the same compound, the “relative viability EC50” value (Caco-2 [7]) was over 10 µM, the “relative viability EC50” value (HepG2 [8]) was over 10 µM and the cell viability (U2OS [9]; 1 nM) was 94.4%. For the same compound, the cell viability (U2OS [9]; 10 nM) was 98.2%, the cell viability (U2OS [9]; 100 nM) was 97.5% and the cell viability (U2OS [9]; 1000 nM) was 101%. For the same compound, the cell viability (U2OS [9]; 10000 nM) was 97.8%, the cell viability (Vero E6 [10]; 1 nM) was 96.1% and the cell viability (Vero E6 [10]; 10 nM) was 92.9%. For the same compound, the cell viability (Vero E6 [10]; 100 nM) was 95.3%, the cell viability (Vero E6 [10]; 1000 nM) was 91.6% and the cell viability (Vero E6 [10]; 10000 nM) was 103%. For the same compound, the cell viability (Caco-2 [11]; 1 nM) was 99.2%, the cell viability (Caco-2 [11]; 10 nM) was 97.1% and the cell viability (Caco-2 [11]; 100 nM) was 96.6%. For the same compound, the cell viability (Caco-2 [11]; 1000 nM) was 104%, the cell viability (Caco-2 [11]; 10000 nM) was 101% and the cell viability (HepG2 [12]; 1 nM) was 101%. It also gave a cell viability (HepG2 [12]; 10 nM) of 86.8%, a cell viability (HepG2 [12]; 100 nM) of 107% and a cell viability (HepG2 [12]; 1000 nM) of 96.3%. For the same compound, the cell viability (HepG2 [12]; 10000 nM) was 98%.
Compound `C=C1/C(=C\C=C2/CCC[C@]3(C)[C@@H]([C@H](C)CC[C@@H](O)C(C)C)CC[C@@H]23)C[C@@H](O)C[C@@H]1O` [tacalcitol] has a drug sensitivity score (U2OS [1]) of 0.3, a drug sensitivity score (Vero E6 [2]) of 1.9 and a drug sensitivity score (Calu-3) of 0. For the same compound, the drug sensitivity score (HepG2 [4]) was 0.
With `Clc1ccc2nsnc2c1NC1=NCCN1` [tizanidine] the drug sensitivity score (U2OS [1]) was 0, the drug sensitivity score (Vero E6 [2]) was 0 and the drug sensitivity score (Calu-3) was 0. For the same compound, the drug sensitivity score (HepG2 [4]) was 0.
